Patent publication US20090221653A1, “7-(2-amino-1-hydroxy-ethyl)-4-hydroxybenzothiazol-2(3H)-one-derivatives as beta2 adrenoreceptor agonists” (AstraZeneca AB, priority 2005, published 2009)
Structures can show the parent of a compound that is named as a salt. Where two headings read alike, the source gives them in different places.

Tests used:
Adrenergic β2 = biological target: T1, Adrenergic β2 (Homo sapiens, UniProt P07550); assay: Alternative Adrenergic β2 Mediated cAMP Production in H292 cells (AlphaScreen cAMP detection); type: cell-based; conditions: for EC50: cAMP, test compounds incubated 60 minutes, 300 μM rolipram, read-out: β2 pEC50 (converted); for β2 Int Act: fraction relative to the maximum activity determined for formoterol, 60 minutes incubation
T1 construct: endogenous in cells; host or cells: H292 cells
T1 sequence (P07550 whole entry): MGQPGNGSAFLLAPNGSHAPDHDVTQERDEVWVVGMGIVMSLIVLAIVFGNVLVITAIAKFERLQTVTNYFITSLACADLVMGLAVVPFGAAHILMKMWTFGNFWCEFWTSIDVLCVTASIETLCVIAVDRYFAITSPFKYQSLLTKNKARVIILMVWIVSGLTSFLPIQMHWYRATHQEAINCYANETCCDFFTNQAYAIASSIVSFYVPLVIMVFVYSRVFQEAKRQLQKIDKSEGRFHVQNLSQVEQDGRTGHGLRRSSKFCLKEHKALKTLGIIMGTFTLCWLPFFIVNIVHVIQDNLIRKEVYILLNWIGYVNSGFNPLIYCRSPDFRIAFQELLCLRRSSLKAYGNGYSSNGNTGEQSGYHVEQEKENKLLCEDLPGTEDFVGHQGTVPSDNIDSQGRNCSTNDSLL
Method: H292 cells were grown in 225 cm2 flasks incubator at 37° C., 5% CO2 in RPMI medium containing, 10% (v/v) FBS (foetal bovine serum) and 2 mM L-glutamine.
Adherent H292 cells were removed from tissue culture flasks by treatment with Accutase™ cell detachment solution for 15 minutes. Flasks were incubated for 15 minutes in a humidified incubator at 37° C., 5% CO2. Detached cells were re-suspended in RPMI media (containing 10% (v/v) FBS and 2 mM L-glutamine) at 0.05×10^6 cells per mL. 5000 cells in 100 μL were added to each well of a tissue-culture-treated 96-well plate and the cells incubated overnight in a humidified incubator at 37° C., 5% CO2. The culture media was removed and cells were washed twice with 100 μL assay buffer and replaced with 50 μL assay buffer (HBSS solution containing 10 mM HEPES pH7.4 and 5 mM glucose). […] Cells were incubated with rolipram for 10 minutes after which time test compounds were added and the cells were incubated for 60 minutes at room temperature. […] The reaction was stopped by removing supernatants, washing once with 100 μL assay buffer and replacing with 50 μL lysis buffer. The cell monolayer was frozen at −80° C. for 30 minutes (or overnight).
The concentration of cAMP (cyclic adenosine monophosphate) in the cell lysate was determined using AlphaScreen™ methodology. The frozen cell plate was thawed for 20 minutes on a plate shaker then 10 μL of the cell lysate was transferred to a 96-well white plate. 40 μL of mixed AlphaScreen™ detection beads pre-incubated with biotinylated cAMP, was added to each well and the plate incubated at room temperature for 10 hours in the dark. The AlphaScreen™ signal was measured using an EnVision spectrophotometer (Perkin-Elmer Inc.) with the recommended manufacturer's settings. cAMP concentrations were determined by reference to a calibration curve determined in the same experiment using standard cAMP concentrations. Concentration response curves for agonists were constructed and data was fitted to a four parameter logistic equation to determine both the pEC50 and Intrinsic Activity.

[1] = biological target: T2, recombinant human α1D receptor (Homo sapiens, UniProt P25100); assay: Adrenergic α1D selectivity assay, inhibition of [3H]-prazosin binding; conditions: HEK293 membranes, [3H]-prazosin 0.3 nM; read-out: α1 bind pIC50 (converted)
T2 construct: expressed in transfected cells; host or cells: HEK293
T2 sequence (P25100 1-572): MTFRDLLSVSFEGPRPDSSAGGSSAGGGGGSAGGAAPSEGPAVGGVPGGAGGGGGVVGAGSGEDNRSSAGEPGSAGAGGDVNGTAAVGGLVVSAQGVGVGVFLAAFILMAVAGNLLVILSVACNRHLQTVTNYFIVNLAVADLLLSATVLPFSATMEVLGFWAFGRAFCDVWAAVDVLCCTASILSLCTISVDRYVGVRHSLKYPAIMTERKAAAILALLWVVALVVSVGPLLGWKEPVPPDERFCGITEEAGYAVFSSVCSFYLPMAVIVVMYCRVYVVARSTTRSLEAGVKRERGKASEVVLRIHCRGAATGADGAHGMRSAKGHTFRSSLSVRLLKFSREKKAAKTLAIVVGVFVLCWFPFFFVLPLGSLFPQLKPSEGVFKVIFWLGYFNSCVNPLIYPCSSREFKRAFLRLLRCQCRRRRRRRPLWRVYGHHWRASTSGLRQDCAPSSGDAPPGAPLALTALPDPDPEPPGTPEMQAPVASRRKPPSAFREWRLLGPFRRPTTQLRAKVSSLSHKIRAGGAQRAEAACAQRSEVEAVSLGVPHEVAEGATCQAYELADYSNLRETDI
Method: Membranes were prepared from human embryonic kidney 293 (HEK293) cells expressing recombinant human α1D receptor. These were diluted in Assay Buffer (50 mM HEPES, 1 mM EDTA, 0.1% gelatin, pH 7.4) to provide a final concentration of membranes that gave a clear window between maximum and minimum specific binding.
(§1) Assays were performed in U-bottomed 96-well polypropylene plates. 10 μL [^3H]-prazosin (0.3 nM final concentration) and 10 μL of test compound (10× final concentration) were added to each test well. For each assay plate 8 replicates were obtained for [^3H]-prazosin binding in the presence of 10 μL vehicle (10% (v/v) DMSO in Assay Buffer; defining maximum binding) or 10 μL BMY7378 (10 μM final concentration; defining non-specific binding (NSB)). Membranes were then added to achieve a final volume of 100 μL. The plates were incubated for 2 hours at room temperature and then filtered onto PEI coated GF/B filter plates, pre-soaked for 1 hour in Assay Buffer, using a 96-well plate Tomtec cell harvester. Five washes with 250 μL wash buffer (50 mM HEPES, 1 mM EDTA, pH 7.4) were performed at 4° C. to remove unbound radioactivity. The plates were dried then sealed from underneath using Packard plate sealers and MicroScint-O (50 μL) was added to each well. The plates were sealed (TopSeal A) and filter-bound radioactivity was measured with a scintillation counter (TopCount, Packard BioScience) using a 3-minute counting protocol.
(§2) Total specific binding (B0) was determined by subtracting the mean NSB from the mean maximum binding. NSB values were also subtracted from values from all other wells.

[2] = biological target: T3, recombinant human adrenergic beta 1 receptors (Homo sapiens, UniProt P08588); assay: Adrenergic β1 selectivity assay, inhibition of [125I]-Iodocyanopindolol binding
T3 construct: purchased Euroscreen
T3 sequence (P08588 whole entry): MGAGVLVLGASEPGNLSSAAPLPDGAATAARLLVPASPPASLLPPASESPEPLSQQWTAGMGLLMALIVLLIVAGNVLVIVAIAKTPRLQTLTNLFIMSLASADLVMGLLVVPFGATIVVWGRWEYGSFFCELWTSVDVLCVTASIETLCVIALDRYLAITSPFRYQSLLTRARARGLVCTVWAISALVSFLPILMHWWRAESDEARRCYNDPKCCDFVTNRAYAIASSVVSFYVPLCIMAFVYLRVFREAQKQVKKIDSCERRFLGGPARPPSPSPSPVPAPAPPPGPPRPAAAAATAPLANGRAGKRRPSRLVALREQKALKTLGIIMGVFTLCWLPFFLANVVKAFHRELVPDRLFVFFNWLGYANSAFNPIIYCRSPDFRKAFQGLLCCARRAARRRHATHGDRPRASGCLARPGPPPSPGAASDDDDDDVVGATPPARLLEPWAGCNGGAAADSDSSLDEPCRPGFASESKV
Method: (§3) Membranes containing recombinant human adrenergic beta 1 receptors were obtained from Euroscreen. These were diluted in Assay Buffer (50 mM HEPES, 1 mM EDTA, 120 mM NaCl, 0.1% gelatin, pH 7.4) to provide a final concentration of membranes that gave a clear window between maximum and minimum specific binding.
as §1, with “10 μL [^3H]-prazosin (0.3 nM final concentration) and 10 μL of test compound (10× final concentration) were added to each test well. For each assay plate 8 replicates were obtained for [^3H]-prazosin binding in the presence of 10 μL vehicle (10% (v/v) DMSO in Assay Buffer; defining maximum binding) or 10 μL BMY7378 (10 μM final concentration; defining non-specific binding (NSB)).” left out, “EDTA, 120 mM NaCl,” for “EDTA,”
as §2

[3] = biological target: T4, recombinant human Dopamine Subtype D2s receptors (Homo sapiens, UniProt P14416); assay: Dopamine D2 selectivity assay, inhibition of [3H]-spiperone binding; conditions: membranes, [3H]-spiperone 0.16 nM; read-out: D2 bind pIC50 (converted)
T4 construct: purchased Perkin Elmer
T4 sequence (P14416 1-414 isoform P14416-2): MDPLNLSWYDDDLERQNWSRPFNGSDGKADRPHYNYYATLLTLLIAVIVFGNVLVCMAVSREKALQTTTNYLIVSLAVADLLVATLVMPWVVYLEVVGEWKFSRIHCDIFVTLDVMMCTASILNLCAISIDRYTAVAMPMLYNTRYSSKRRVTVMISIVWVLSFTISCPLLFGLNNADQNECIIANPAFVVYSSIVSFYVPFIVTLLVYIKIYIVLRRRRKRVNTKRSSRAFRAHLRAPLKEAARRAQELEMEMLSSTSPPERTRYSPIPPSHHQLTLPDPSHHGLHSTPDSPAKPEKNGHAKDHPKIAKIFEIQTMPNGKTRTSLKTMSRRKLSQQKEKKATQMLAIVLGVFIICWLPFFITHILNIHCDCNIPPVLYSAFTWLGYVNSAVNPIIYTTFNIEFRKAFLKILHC
Method: as §3, with “human Dopamine Subtype D2s” for “human adrenergic beta 1”, “from Perkin Elmer.” for “from Euroscreen.”, “([…]” for “(50 mM”
Assays were performed in U-bottomed 96-well polypropylene plates. […] For each assay plate 8 replicates were obtained for [^3H]-spiperone binding in the presence of 30 μL vehicle (10% (v/v) DMSO in Assay Buffer; defining maximum binding) or 30 μL Haloperidol (10 μM final concentration; defining non-specific binding (NSB)). Membranes were then added to achieve a final volume of 300 μL. The plates were incubated for 2 hours at room temperature and then filtered onto PEI coated GF/B filter plates, pre-soaked for 1 hour in Assay Buffer, using a 96-well plate Tomtec cell harvester. Five washes with 250 μL wash buffer (50 mM HEPES, 1 mM EDTA, 120 mM NaCl, pH 7.4) were performed at 4° C. to remove unbound radioactivity. The plates were dried then sealed from underneath using Packard plate sealers and MicroScint-O (50 μL) was added to each well. The plates were sealed (TopSeal A) and filter-bound radioactivity was measured with a scintillation counter (TopCount, Packard BioScience) using a 3-minute counting protocol. Total specific binding (B0) was determined by subtracting the mean NSB from the mean maximum binding. NSB values were also subtracted from values from all other wells.

[4] = membranes, [125I]-Iodocyanopindolol, read-out: β1 bind pIC50 (converted)

EC50 (Adrenergic β2)	β2 Int Act (Adrenergic β2)	IC50 [1]	IC50 [2, 4]	IC50 [3]	Compound	IC50 [2]
0.398 nM	0.8	158 nM	79.4 nM	631 nM	N[C@@H](COCCCSCCNC[C@H](O)c1ccc(O)c2[nH]c(=O)sc12)c1ccccc1 [Example 24, 7-((1R)-2-{[2-({3-[(2R)-2-Amino-2-phenylethoxy]propyl}thio)ethyl]amino}-1-hydroxyethyl)-4-hydroxy-1,3-benzothiazol-2(3H)-one]	
1 nM	1	126 nM	63.1 nM	1000 nM	C[C@@H](CNCCSCCCNC[C@H](O)c1ccc(O)c2[nH]c(=O)sc12)c1ccccc1 [Example 27, 4-Hydroxy-7-[(1R)-1-hydroxy-2-({3-[(2-{[(2R)-2-phenylpropyl]amino}ethyl)thio]propyl}amino)ethyl]-1,3-benzothiazol-2(3H)-one]	
1.26 nM	0.9	1580 nM	158 nM	3980 nM	C[C@H](CNCCCSCCNC[C@H](O)c1ccc(O)c2[nH]c(=O)sc12)c1ccccc1 [Example 48, (S)-(−)-7-[(1R)-2-({2-[(3-{[2-(phenyl)propyl]amino}propyl)thio]ethyl}amino)-1-hydroxyethyl]-4-hydroxy-1,3-benzothiazol-2(3H)-one dihydrochloride]	
0.316 nM	0.9	100 nM	25.1 nM	3980 nM	C[C@H](CNCCSCCCNC[C@H](O)c1ccc(O)c2[nH]c(=O)sc12)c1ccccc1 [Example 29, 4-Hydroxy-7-[(1R)-1-hydroxy-2-({3-[(2-{[(2S)-2-phenylpropyl]amino}ethyl)thio]propyl}amino)ethyl]-1,3-benzothiazol-2(3H)-one]	
0.631 nM	0.8	398 nM	79.4 nM	12600 nM	CC(CNCCCSCCNC[C@H](O)c1ccc(O)c2[nH]c(=O)sc12)c1ccccc1 (mixture of isomers) [Example 44, (+/−)-7-[(1R)-2-({2-[(3-{[2-(phenyl)propyl]amino}propyl)thio]ethyl}amino)-1-hydroxyethyl]-4-hydroxy-1,3-benzothiazol-2(3H)-one dihydrochloride]	
0.631 nM	0.8	251 nM	79.4 nM	1260 nM	C[C@@H](CNCCCSCCNC[C@H](O)c1ccc(O)c2[nH]c(=O)sc12)c1ccccc1 [Example 46, (R)-(+)-7-[(1R)-2-({2-[(3-{[2-(phenyl)propyl]amino}propyl)thio]ethyl}amino)-1-hydroxyethyl]-4-hydroxy-1,3-benzothiazol-2(3H)-one dihydrochloride]	

Compound	EC50 (Adrenergic β2)	β2 Int Act (Adrenergic β2)	IC50 [1]	IC50 [2, 4]	IC50 [3]	IC50 [2]
O=c1[nH]c2c(O)ccc([C@@H](O)CNCCS(=O)(=O)CCCNCCc3cccc(Cl)c3)c2s1 [Example 42, 7-[(1R)-2-({2-[(3-{[2-(3-Chlorophenyl)ethyl]amino}propyl)sulfonyl]ethyl}amino)-1-hydroxyethyl]-4-hydroxy-1,3-benzothiazol-2(3H)-one dihydrochloride]		1	126 nM		10000 nM	794 nM
O=c1[nH]c2c(O)ccc([C@@H](O)CNCCSCCCNCCc3cccc(Cl)c3Cl)c2s1 [Example 38, 7-[(1R)-2-({2-[(3-{[2-(2,3-Dichlorophenyl)ethyl]amino}propyl)thio]ethyl}amino)-1-hydroxyethyl]-4-hydroxy-1,3-benzothiazol-2(3H)-one dihydrochloride]	1.58 nM	0.9	158 nM		398 nM	
O=c1[nH]c2c(O)ccc([C@@H](O)CNCCCSCCNCCc3ccccc3Cl)c2s1 [Example 31, 7-[(1R)-2-({3-[(2-{[2-(2-Chlorophenyl)ethyl]amino}ethyl)thio]propyl}amino)-1-hydroxyethyl]-4-hydroxy-1,3-benzothiazol-2(3H)-one]	0.398 nM	0.8	12.6 nM	39.8 nM	1580 nM	
